Drawing on PubChem BioAssay AID192 (DTP/NCI, 2004), this text covers T/C for 19 compounds.

SMILES strings stand for the structures. “And” between values parts separate entries of the source, which are not always exact repeats. Equal values may be shown once. Toxic doses and inconclusive results are not listed.

The subject of the assay is BDF1 mice, B16 melanoma ip, median survival T/C. Kind of assay: NCI In Vivo Anticancer Drug Screen. Data for tumor model B16 Melanoma (intraperitoneal) in B6D2F1 (BDF1) mice. The note with it: endpoint: median survival time, higher = longer survival. Put shortly: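 The ratio T/C compares compound-treated mice with vehicle-treated controls, using survival or tumor size as the endpoint in a transplantable tumor model.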

Where [1] appears, read: dose: 12.5 mg/kg/injection, schedule: Q01DX009 (ip), vehicle: water.
The mark [2] stands for this setting: dose: 6.25 mg/kg/injection, schedule: Q01DX009 (ip), vehicle: saline with Tween-80.
Where [3] appears, read: dose: 12.5 mg/kg/injection, schedule: Q01DX009 (ip), vehicle: saline with Tween-80.
Setting [4] is: dose: 25.0 mg/kg/injection, schedule: Q01DX009 (ip), vehicle: saline with Tween-80.
[5] abbreviates: dose: 25.0 mg/kg/injection, schedule: Q01DX009 (ip), vehicle: saline.
Where [6] appears, read: dose: 50.0 mg/kg/injection, schedule: Q01DX009 (ip), vehicle: saline.
[7] abbreviates: dose: 100.0 mg/kg/injection, schedule: Q01DX009 (ip), vehicle: saline with Tween-80.
The mark [8] stands for this setting: dose: 200.0 mg/kg/injection, schedule: Q01DX009 (ip), vehicle: saline with Tween-80.
The mark [9] stands for this setting: dose: 400.0 mg/kg/injection, schedule: Q01DX009 (ip), vehicle: saline with Tween-80.
Setting [10] is: dose: 50.0 mg/kg/injection, schedule: Q01DX009 (ip), vehicle: saline with Tween-80.

With `CCOC(=O)C(O)C(C#N)c1ccccc1` (stereo unspecified), the T/C by setting is: (dose: 100.0 mg/kg/injection, schedule: Q01DX009 (ip), vehicle: other) 98 % of control; (dose: 200.0 mg/kg/injection, schedule: Q01DX009 (ip), vehicle: other) 99 % of control; (dose: 400.0 mg/kg/injection, schedule: Q01DX009 (ip), vehicle: other) 107 % of control.

`O=C1Cc2cc3c(cc2C=C2CCCN12)OCO3`: the T/C was 117 % of control under setting [1]; 108 % of control (dose: 25.0 mg/kg/injection, schedule: Q01DX009 (ip), vehicle: water); 102 % of control (dose: 50.0 mg/kg/injection, schedule: Q01DX009 (ip), vehicle: water); 107 % of control (dose: 100.0 mg/kg/injection, schedule: Q01DX009 (ip), vehicle: water).

Take `CCc1ccc(C2=C(O)C(=O)C(c3ccc(CC)cc3)=C(O)C2=O)cc1`: the T/C is 114 % of control (dose: 3.12 mg/kg/injection, schedule: Q01DX009 (ip), vehicle: saline with Tween-80); 103 % of control under setting [2]; 113 % of control and 119 % of control under setting [3]; 112 % of control and 122 % of control under setting [4].

`Fc1cccc(/C=C2/c3cc(Cl)ccc3-c3c(Cl)cc(Cl)cc32)c1`: the T/C under setting [2] is 90 % of control, the T/C under setting [3] was 93 % of control and the T/C under setting [4] is 88 % of control.

Turning to `C/C=C/c1cc2n(c1)C(=O)c1cc(OC3OC(C)C(NC)C(C)(O)C3O)c(C)c(O)c1NC2O` (stereo unspecified), the T/C reads like this: (dose: 0.02 mg/kg/injection, schedule: Q04DX003 (ip), vehicle: DMSO) 168 % of control; (dose: 0.5 micrograms/kg/injection, schedule: Q04DX003 (ip), vehicle: saline) 184 % of control; (dose: 1.0 micrograms/kg/injection, schedule: Q04DX003 (ip), vehicle: saline) 184 % of control; (dose: 2.0 micrograms/kg/injection, schedule: Q04DX003 (ip), vehicle: saline) 197 % of control; (dose: 16.0 micrograms/kg/injection, schedule: Q04DX003 (ip), vehicle: saline) 151 % of control.

`Nc1nc(=S)c2ncn(C3OC(CO)C(O)C3O)c2[nH]1` (stereo unspecified): the T/C runs as follows: (dose: 0.5 mg/kg/injection, schedule: Q01DX009 (ip), vehicle: saline with Tween-80) 109 % of control; (dose: 1.0 mg/kg/injection, schedule: Q01DX009 (ip), vehicle: saline sonified) 106 % of control; (dose: 1.0 mg/kg/injection, schedule: Q01DX009 (ip), vehicle: saline with Tween-80) 122 % of control; (dose: 2.0 mg/kg/injection, schedule: Q01DX009 (ip), vehicle: saline sonified) 102 % of control; (dose: 2.0 mg/kg/injection, schedule: Q01DX009 (ip), vehicle: saline with Tween-80) 113 % of control.

On to `CC(C)C[C@H](O)C(=O)O`, for which the T/C reads like this: under setting [5], 104 % of control; under setting [6], 110 % of control.

Regarding `CCC(C)C(C(=O)O)c1ccccc1` (stereo unspecified), the T/C runs as follows: under setting [7], 107 % of control; under setting [8], 99 % of control; under setting [9], 93 % of control.

For the compound `C=CCOCC(O)CN(CCC(C)C)CCC(C)C` (stereo unspecified), the T/C is, setting by setting: (dose: 12.5 mg/kg/injection, schedule: Q04DX003 (ip), vehicle: Klucel (hydroxypropylcellulose) (HPC)) 91 % of control; (dose: 25.0 mg/kg/injection, schedule: Q04DX003 (ip), vehicle: Klucel (hydroxypropylcellulose) (HPC)) 91 % of control; (dose: 50.0 mg/kg/injection, schedule: Q04DX003 (ip), vehicle: Klucel (hydroxypropylcellulose) (HPC)) 95 % of control.

Take `CCC1(C)CC(=O)NC(=O)C1`: the T/C is 110 % of control (dose: 0.93 mg/kg/injection, schedule: Q01DX009 (ip), vehicle: saline); 97 % of control (dose: 1.87 mg/kg/injection, schedule: Q01DX009 (ip), vehicle: saline); 110 % of control (dose: 3.75 mg/kg/injection, schedule: Q01DX009 (ip), vehicle: saline); 107 % of control (dose: 7.5 mg/kg/injection, schedule: Q01DX009 (ip), vehicle: saline); 107 % of control (dose: 15.0 mg/kg/injection, schedule: Q01DX009 (ip), vehicle: saline).

Turning to `C#CC(O)(/C=C\Cl)CC` (stereo unspecified), the T/C (dose: 6.25 mg/kg/injection, schedule: Q01DX009 (ip), vehicle: saline) was 110 % of control; the T/C (dose: 12.5 mg/kg/injection, schedule: Q01DX009 (ip), vehicle: saline) was 102 % of control; the T/C under setting [5] was 100 % of control; the T/C under setting [6] was 110 % of control; the T/C (dose: 100.0 mg/kg/injection, schedule: Q01DX009 (ip), vehicle: saline) is 115 % of control.

Turning to `CCCCOC(=O)/C=C(\Br)C(=O)OCCCC`, the T/C reads like this: under setting [2], 99 % of control and 100 % of control; under setting [3], 98 % of control and 104 % of control; under setting [4], 86 % of control and 98 % of control; under setting [10], 91 % of control; under setting [7], 90 % of control.

As to `CCCCCCCCCCCCCCCC(=O)N(CCCN(C)C)CCCN(CCCN(C)C)C(=O)CCCCCCCCCCCCCCC`, the T/C is, setting by setting: (dose: 1.56 mg/kg/injection, schedule: Q01DX009 (ip), vehicle: water) 106 % of control; (dose: 3.13 mg/kg/injection, schedule: Q01DX009 (ip), vehicle: water) 101 % of control; (dose: 6.25 mg/kg/injection, schedule: Q01DX009 (ip), vehicle: water) 92 % of control; under setting [1], 87 % of control.

On to `COC(=O)c1cc(I)ccc1O`, for which the T/C is 102 % of control under setting [7], 104 % of control under setting [8] and 102 % of control under setting [9].

For the compound `COc1cccc(O)c1`, the T/C runs as follows: under setting [4], 97 % of control; under setting [10], 96 % of control; under setting [7], 91 % of control; under setting [8], 86 % of control.

As for `CCCCNC(C)(C)C(SSSC(c1cccs1)C(C)(C)NCCCC)c1cccs1` (stereo unspecified), the T/C under setting [3] was 96 % of control and the T/C under setting [4] was 86 % of control.

On to `NC(=O)C=C1c2ccccc2-c2ccccc21`, for which the T/C reads like this: (dose: 25.0 mg/kg/injection, schedule: Q01DX009 (ip), vehicle: Klucel (hydroxypropylcellulose) (HPC)) 100 % of control; (dose: 50.0 mg/kg/injection, schedule: Q01DX009 (ip), vehicle: Klucel (hydroxypropylcellulose) (HPC)) 100 % of control; (dose: 100.0 mg/kg/injection, schedule: Q01DX009 (ip), vehicle: Klucel (hydroxypropylcellulose) (HPC)) 94 % of control; (dose: 200.0 mg/kg/injection, schedule: Q01DX009 (ip), vehicle: Klucel (hydroxypropylcellulose) (HPC)) 88 % of control; (dose: 400.0 mg/kg/injection, schedule: Q01DX009 (ip), vehicle: Klucel (hydroxypropylcellulose) (HPC)) 86 % of control.

`CCc1ccc(NC2=NCCO2)cc1`: the T/C reads like this: under setting [3], 102 % of control; under setting [4], 97 % of control; under setting [10], 91 % of control.

Take `Cc1cc(=O)[nH]c(N/N=C/c2cc(Cl)ccc2O)n1`: the T/C reads like this: under setting [3], 93 % of control; under setting [4], 90 % of control; under setting [10], 86 % of control.
